Assay results reported in patent publication US20130012466A1 (priority 2006, published 2013).
Where two headings read alike, the source gives them in different places.

Experiments:
SK-OV-3 = experiment: Cytotoxicity assay (cell titer-glo and calcein AM), SK-OV-3
[1] = tested on: mouse mammary normal epithelial control cell line; experiment: Cytotoxicity assay, normal control cell line
SF-268 = experiment: Cytotoxicity assay (cell titer-glo and calcein AM), SF-268
tubulin = experiment: In vitro tubulin polymerization assay (fluorescence-based); format: biochemical; details: for effect on tubulin polymerization / microtubules: tested in duplicate on at least two days
Description: In vitro tubulin polymerization assays were performed using a fluorescence-based assay (Cytoskeleton, Inc., Denver, Colo.). […] Aliquots (5 μL) of each compound or control were added to a 96-well black half area plate (Corning Costar, Inc.) pre-warmed to 37° C. Cold tubulin reaction mix (50 μL 1× Buffer—80 mM piperazine-N,N′-bis[2-ethanesulfonic acid]sequisodium salt; 2.0 mM magnesium chloride; 0.5 mM ethylene glycol-bis[β-amino-ethyl ether) N,N,N′,N′-tetra-acetic acid, pH 6.9, 10 μM fluorescent reporter; 20% tubulin glycerol buffer—80 mM piperazine-N,N′-bis[2-ethanesulfonic acid] sequisodium salt; 2.0 mM magnesium chloride; 0.5 mM ethylene glycol-bis(β-amino-ethyl ether) N,N,N′,N′-tetra-acetic acid, 60% v/v glycerol, pH 6.9, 1 mM GTP; and 2 mg mL^−1 tubulin stock) was added to each of the compounds. […] Polymerization curves were generated in Excel after background correction and the effects of test compounds were compared to controls.
Library members that accelerated the rate of tubulin polymerization were deemed microtubule stabilizers, whereas compounds that decelerated the rate of tubulin polymerization were deemed microtubule de-stabilizers.

NCI-H460 = experiment: Cytotoxicity assay (cell titer-glo and calcein AM), NCI-H460
MCF7 = experiment: Cytotoxicity assay (cell titer-glo and calcein AM), MCF7
A549 = experiment: Cytotoxicity assay (cell titer-glo and calcein AM), A549
Hep3B = experiment: Cytotoxicity assay (cell titer-glo and calcein AM), Hep3B
Du145 = experiment: Cytotoxicity assay (cell titer-glo and calcein AM), Du145
ADR-RES = experiment: Cytotoxicity assay (cell titer-glo and calcein AM), ADR-RES; details: NCI/ADR RES, % error in parentheses
A549 cells [2] = experiment: Drug combination study with colchicine (Chou-Talalay combination index); details: for plus colchicine, mean CI / plus colchicine, median CI: combination index, colchicine held at IC10, A549 cells; for interaction with colchicine: drug combination, A549 cells, Chou-Talalay
A549 cells [3] = experiment: Drug combination study with paclitaxel (Chou-Talalay combination index); details: for synergy (paclitaxel): combination index class, combination with paclitaxel, Chou-Talalay method; for plus paclitaxel, mean CI / plus paclitaxel, median CI: combination index, paclitaxel held at IC10, A549 cells; for interaction with paclitaxel/taxol: drug combination, A549 cells, Chou-Talalay;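 on all read-outs here: combination indexes averaged only over points where fraction affected exceeded 0.2, with each synergy experiment repeated at least three times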
[4] = read-out: Cytotoxicity IC50, SK-OV-3, CTG, SK-OV-3, CTG (cell titer-glo) readout, % error in parentheses
[5] = read-out: Cytotoxicity IC50, SK-OV-3, calcein, SK-OV-3, calcein AM readout, % error in parentheses
[6] = read-out: Cytotoxicity IC50, NmuMG, CTG, CTG (cell titer-glo) readout, % error in parentheses
[7] = read-out: Cytotoxicity IC50, NmuMG, calcein, calcein AM readout, % error in parentheses
[8] = read-out: Cytotoxicity IC50, SF-268, CTG, SF-268, CTG (cell titer-glo) readout, % error in parentheses
[9] = read-out: Cytotoxicity IC50, SF-268, calcein, SF-268, calcein AM readout, % error in parentheses
[10] = read-out: Cytotoxicity IC50, NCI-H460, CTG, NCI-H460, CTG (cell titer-glo) readout, % error in parentheses
[11] = read-out: Cytotoxicity IC50, NCI-H460, calcein, NCI-H460, calcein AM readout, % error in parentheses
[12] = read-out: Cytotoxicity IC50, MCF7, CTG, CTG (cell titer-glo) readout, % error in parentheses
[13] = read-out: Cytotoxicity IC50, MCF7, calcein, calcein AM readout, % error in parentheses
[14] = read-out: Cytotoxicity IC50, A549, CTG, A549, CTG (cell titer-glo) readout, % error in parentheses
[15] = read-out: Cytotoxicity IC50, A549, calcein, A549, calcein AM readout, % error in parentheses
[16] = read-out: Cytotoxicity IC50, Hep 3B, CTG, Hep 3B, CTG (cell titer-glo) readout, % error in parentheses
[17] = read-out: Cytotoxicity IC50, Hep 3B, calcein, Hep 3B, calcein AM readout, % error in parentheses
[18] = read-out: Cytotoxicity IC50, Du145, CTG, Du145, CTG (cell titer-glo) readout, % error in parentheses
[19] = read-out: Cytotoxicity IC50, Du145, calcein, Du145, calcein AM readout, % error in parentheses
[20] = read-out: Cytotoxicity IC50, NCI/ADR RES, CTG, CTG (cell titer-glo) readout
[21] = read-out: Cytotoxicity IC50, NCI/ADR RES, calcein, calcein AM readout

Compound	IC50 (SK-OV-3; [4])	IC50 (SK-OV-3; [5])	IC50 [1, 6]	IC50 [1, 7]	IC50 (SF-268; [8])	IC50 (SF-268; [9])	effect on tubulin polymerization / microtubules (tubulin)	IC50 (NCI-H460; [10])	IC50 (NCI-H460; [11])	IC50 (MCF7; [12])	IC50 (MCF7; [13])	IC50 (A549; [14])	IC50 (A549; [15])	IC50 (Hep3B; [16])	IC50 (Hep3B; [17])	IC50 (Du145; [18])	IC50 (Du145; [19])	IC50 (ADR-RES; [20])	IC50 (ADR-RES; [21])	plus paclitaxel, mean CI (A549 cells [3])	other results
6-deoxy-6-acyl-D-galactoside [Col56]	901 nM	1180 nM	1520 nM	1490 nM	1760 nM	> 1000 nM	no apparent effect	1550 nM	1090 nM	3130 nM	812 nM	1910 nM	2090 nM	1480 nM	2230 nM	1150 nM	1090 nM	1160 nM	994 nM	–	tubulin polymeriz. (tubulin): no effect
19-(N-METHOXYAMINO-N-22-DEOXY-D-RIBOSYL)COLCHICINE [Col21]	–	–	–	–	–	–	–	–	–	–	–	–	–	–	–	–	–	–	–	4.96	plus colchicine, mean CI (A549 cells [2]): 1.01; plus colchicine, median CI (A549 cells [2]): 0.64; synergy (paclitaxel) (A549 cells [3]): — (moderate antagonism, Cl 1.2-1.45); plus paclitaxel, median CI (A549 cells [3]): 2.50
COc1cc2c(c(OC)c1OC)-c1ccc(OC)c(=O)cc1[C@@H](NC(=O)CN(OC)[C@H]1C[C@@H](O)[C@H](O)[C@@H](CO)O1)CC2 [Col16, 2-deoxy-D-glucoside]	432 nM	625 nM	1610 nM	4420 nM	1070 nM	1540 nM	destabilized microtubules	946 nM	808 nM	2650 nM	1920 nM	3900 nM	1680 nM	1920 nM	1440 nM	705 nM	910 nM	1680 nM	899 nM	0.40	plus colchicine, mean CI (A549 cells [2]): 5.97; plus colchicine, median CI (A549 cells [2]): 5.33; interaction with colchicine (A549 cells [2]): antagonism; plus paclitaxel, median CI (A549 cells [3]): 0.11; interaction with paclitaxel/taxol (A549 cells [3]): synergy
COc1cc2c(c(OC)c1OC)-c1ccc(OC)c(=O)cc1[C@@H](NC(=O)CN(OC)[C@@H]1O[C@H](C(=O)O)[C@H](O)[C@H](O)[C@H]1O)CC2 [Col18, D-Galacturonoside]	1080 nM	1070 nM	2090 nM	2620 nM	834 nM	1110 nM	no effect	993 nM	1130 nM	1160 nM	1490 nM	1100 nM	1070 nM	2000 nM	2270 nM	1120 nM	1190 nM	1110 nM	828 nM	–	–
COc1cc2c(c(OC)c1OC)-c1ccc(OC)c(=O)cc1[C@@H](NC(=O)CN(OC)[C@@H]1O[C@H](CO)[C@@H](O)[C@H](O)[C@H]1F)CC2 [Col34, 2-fluoro-2-deoxy-D-glucoside]	325 nM	800 nM	451 nM	760 nM	281 nM	452 nM	destabilized microtubules	> 1000 nM	> 1000 nM	242 nM	254 nM	545 nM	778 nM	545 nM	1170 nM	–	328 nM	> 1000 nM	> 1000 nM	0.18	plus colchicine, mean CI (A549 cells [2]): 31.49; plus colchicine, median CI (A549 cells [2]): 21.50; interaction with colchicine (A549 cells [2]): strong antagonism; plus paclitaxel, median CI (A549 cells [3]): 0.12; interaction with paclitaxel/taxol (A549 cells [3]): strong synergism
COc1cc2c(c(OC)c1OC)-c1ccc(OC)c(=O)cc1[C@@H](NC(=O)CN(OC)[C@@H]1O[C@H](CO)[C@@H](O[C@H]3O[C@H](CO)[C@@H](O)[C@H](O)[C@H]3O)[C@H](O)[C@H]1O)CC2 [Col38, D-maltoside]	252 nM	316 nM	976 nM	875 nM	160 nM	319 nM	destabilized microtubules	112 nM	487 nM	291 nM	–	244 nM	508 nM	229 nM	1390 nM	215 nM	342 nM	199 nM	173 nM	–	–
COc1cc2c(c(OC)c1OC)-c1ccc(OC)c(=O)cc1[C@@H](NC(=O)CN(OC)[C@@H]1O[C@H](CO)[C@@H](N=[N+]=[N-])[C@H](O)[C@H]1O)CC2 [Col44, 4-deoxy-4-azido-D-glucoside]	> 1000 nM	> 1000 nM	1420 nM	3660 nM	229 nM	412 nM	destabilized microtubules	> 1000 nM	> 1000 nM	596 nM	676 nM	315 nM	649 nM	453 nM	671 nM	> 1000 nM	> 1000 nM	> 1000 nM	> 1000 nM	–	–
COc1cc2c(c(OC)c1OC)-c1ccc(OC)c(=O)cc1[C@@H](N)CC2 [Col 6, deacetyl colchicine]	–	–	–	–	–	–	–	–	–	–	–	–	–	–	–	–	–	–	–	0.57	plus colchicine, mean CI (A549 cells [2]): 2.32; plus colchicine, median CI (A549 cells [2]): 1.96; interaction with colchicine (A549 cells [2]): antagonism; plus paclitaxel, median CI (A549 cells [3]): 0.20; interaction with paclitaxel/taxol (A549 cells [3]): synergy
COc1cc2c(c(OC)c1OC)-c1ccc(OC)c(=O)cc1[C@@H](NC(C)=O)CC2 [colchicine, reference compound]	–	–	–	–	–	–	–	–	–	–	–	–	–	–	–	–	–	–	–	0.77	synergy (paclitaxel) (A549 cells [3]): ++ (moderate synergism, Cl 0.7-0.85); plus paclitaxel, median CI (A549 cells [3]): 0.18
COc1cccc2c1C(=O)c1c(O)c3c(c(O)c1C2=O)C[C@@](O)(C(=O)CO)C[C@@H]3O[C@H]1C[C@H](N)[C@H](O)[C@H](C)O1 [doxorubicin, reference compound]	–	–	–	–	–	–	no apparent effect	–	–	–	–	–	–	–	–	–	–	–	–	–	IC50 (SK-OV-3; Homo sapiens, SK-OV-3, read-out: IC50 (SK-OV-3)): 621 nM; IC50 (SF-268; Homo sapiens, SF-268, read-out: IC50 (SF-268)): 385 nM; tubulin polymeriz. (tubulin): no effect; IC50 (NCI-H460; Homo sapiens, NCI-H460, read-out: IC50 (NCI-H460)): 1000 nM; IC50 (A549; Homo sapiens, A549, read-out: IC50 (A549)): 770 nM; IC50 (Hep3B; Homo sapiens, Hep3B, read-out: IC50 (Hep3B)): 268 nM; IC50 (Du145; Homo sapiens, DU-145, read-out: IC50 (Du145)): 339 nM
novioside [Col29]	1030 nM	4350 nM	> 5000 nM	> 5000 nM	1120 nM	1280 nM	–	980 nM	3370 nM	610 nM	300 nM	1860 nM	2180 nM	2470 nM	2940 nM	1240 nM	550 nM	1560 nM	1180 nM	–	–
